Key:
gastric acid = assay: Phase 1 clinical studies conducted with ilaprazole; format: in vivo, humans; conditions: Phase 1, at the doses studied
[1] = tested on: gastric-acid related disorders; acid-related gastric and duodenal ulcers; assay: Phase 2 clinical studies conducted with ilaprazole; format: in vivo, humans; conditions: at the doses studied
[2] = Dynamic Vapor Sorption/Desorption (DVS) isotherm; format: physicochemical; conditions: for DVS weight loss at 5% RH: samples not dried prior to analysis; for DVS weight loss from 95 to 5% RH: desorption
Protocol: Dynamic Vapor Sorption/Desorption (DVS): Data were collected on a VTI SGA-100 moisture balance system. For sorption isotherms, a sorption range of 5 to 95% relative humidity (RH) and a desorption range of 95 to 5% RH in 10% RH increments were used for analysis. The samples were not dried prior to analysis. Equilibrium criteria used for analysis were less than 0.0100% weight change in 5 minutes with a maximum equilibration time of 3 hours if the weight criterion was not met. Data were not corrected for the initial moisture content of the samples.

| Compound | suppression of gastric acid (gastric acid) | healing of ulcers ([1]; Phase 2, acid-related gastric and duodenal ulcers) | symptomatic relief ([1]; Phase 2, patients with gastric-acid related disorders) | DVS weight loss at 5% RH [2] [%] | DVS weight loss from 95 to 5% RH [2] [%] | DVS weight loss from 5 to 95% RH ([2]; sorption, 5 to 95% RH) [%] | DVS weight gain from 5 to 95% RH ([2]; sorption, 5 to 95% RH) [%] |
| --- | --- | --- | --- | --- | --- | --- | --- |
| COc1ccnc(C[S+]([O-])c2nc3cc(-n4cccc4)ccc3[nH]2)c1C (stereo not drawn) [ilaprazole, 2[[(4-methoxy-3-methyl-2-pyridinyl)-methyl]sulfinyl]-5-(1H-pyrrol-1-yl) 1H-Benzimidazole] | suppression of gastric acid occurs over a 24-hour period | promoted rapid healing | provided symptomatic relief |  |  |  |  |
| C1COCCO1.COc1ccnc(C[S+]([O-])c2nc3cc(-n4cccc4)ccc3[nH]2)c1C.COc1ccnc(C[S+]([O-])c2nc3cc(-n4cccc4)ccc3[nH]2)c1C (racemic) [Form C, crystalline 1,4-dioxane/racemic ilaprazole hemi-solvate] |  |  |  | ~1.2 | ~4.1 | ~1.1 |  |
| C1CCOC1.COc1ccnc(C[S+]([O-])c2nc3cc(-n4cccc4)ccc3[nH]2)c1C.COc1ccnc(C[S+]([O-])c2nc3cc(-n4cccc4)ccc3[nH]2)c1C (racemic) [Form D, crystalline THF/racemic ilaprazole hemisolvate] |  |  |  | ~0.6 | ~1.2 |  | ~0.6 |

From patent publication US7989632B2, “Crystalline forms of solvated ilaprazole” (Il Yang Pharmaceutical Company, Ltd., priority 2006, dated 2011)
